Literature values as cited in patent publication US20120245201A1, “Isopropylphenidate for Treatment of Attention-Deficit/Hyperactivity Disorder and Fatigue-Related Disorders and Conditions” (priority 2009, published 2012).

Tests used:
[1] = metabolite after MPH; cited from earlier work
[2] = tested on: mouse model; conditions: 5 mg/kg i.p.; cited from earlier work

Structure (SMILES)	blood concentrations relative to the parent compound [1]	motor activity [2]
O=C(O)C(c1ccccc1)C1CCCCN1 (centres unmarked) [RA, ritalinic acid]	30-60 times	–
CCOC(=O)C(c1ccccc1)C1CCCCN1 (stereo not drawn) [d-EPH]	–	significant motor activity
